Laboratory results published in PubChem BioAssay (NCI).
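How tested: cells in 96-well plates exposed to compound for 48 hours at five concentrations. Abbreviation: GI50, concentration required for 50% inhibition of growth. At the TGI there is no net growth.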

Assays:
Assay in all cases: NCI tumour cell line growth inhibition, 48 h
SF-539 CNS = system: SF-539 CNS
COLO 205 colon = system: COLO 205 colon
RPMI-8226 leukemia = system: RPMI-8226 leukemia
HT29 colon = system: HT29 colon
NCI-H226 lung = system: NCI-H226 lung
SK-MEL-2 melanoma = system: SK-MEL-2 melanoma
UO-31 renal = system: UO-31 renal
BT-549 breast = system: BT-549 breast
MDA-MB-231 breast = system: MDA-MB-231 breast
NCI/ADR-RES ovarian = system: NCI/ADR-RES ovarian

O=S(=O)([O-])[O-].[Fe+2].c1ccc(/C(=N\Nc2ccccn2)c2ccccn2)cc1
TGI (SF-539 CNS): 6.42 µM
TGI (COLO 205 colon): 2.15 µM
TGI (RPMI-8226 leukemia): 12.4 µM
TGI (HT29 colon): 22.7 µM
TGI (NCI-H226 lung): 4.37 µM
TGI (SK-MEL-2 melanoma): 5.74 µM
TGI (UO-31 renal): 13.1 µM

CC1C2CC(CC(=O)N2)C1(C)C (stereo not given)
TGI (SF-539 CNS): > 100 µM
TGI (COLO 205 colon): > 100 µM
TGI (BT-549 breast): > 100 µM
TGI (HT29 colon): > 100 µM
TGI (NCI-H226 lung): > 100 µM
TGI (MDA-MB-231 breast): > 100 µM
TGI (UO-31 renal): > 100 µM

CCOC(C[C@H](O)[C@H]1COC(=S)S1)OCC
TGI (SF-539 CNS): > 100 µM
TGI (COLO 205 colon): > 100 µM
TGI (RPMI-8226 leukemia): > 100 µM
TGI (HT29 colon): > 100 µM
TGI (NCI-H226 lung): > 100 µM
TGI (UO-31 renal): > 100 µM

CC(C)c1ccccc1SC1CC(=O)CC(Sc2ccccc2C(C)C)C12O[C@H](c1ccccc1)[C@@H](c1ccccc1)O2 (stereo not given in full)
TGI (SF-539 CNS): > 100 µM
TGI (COLO 205 colon): > 100 µM
TGI (BT-549 breast): > 100 µM
TGI (NCI/ADR-RES ovarian): > 100 µM
TGI (RPMI-8226 leukemia): 61.3 µM
TGI (HT29 colon): > 100 µM
TGI (MDA-MB-231 breast): 71.8 µM
TGI (SK-MEL-2 melanoma): > 100 µM

Cc1c2ccncc2cc2c1sc1ccncc12
TGI (SF-539 CNS): 17.6 µM
TGI (COLO 205 colon): 12.1 µM
TGI (BT-549 breast): 17.6 µM
TGI (RPMI-8226 leukemia): 7.49 µM
TGI (HT29 colon): 14.5 µM
TGI (NCI-H226 lung): 5.18 µM
TGI (MDA-MB-231 breast): 21.9 µM
TGI (SK-MEL-2 melanoma): 17.8 µM
TGI (UO-31 renal): 8.04 µM

O=C(c1ccc(Cl)cc1Cl)N(C(=O)N1CCC(c2ccccc2)CC1)c1ccccc1
TGI (SF-539 CNS): > 100 µM
TGI (COLO 205 colon): > 100 µM
TGI (BT-549 breast): > 100 µM
TGI (NCI/ADR-RES ovarian): > 100 µM
TGI (RPMI-8226 leukemia): > 100 µM
TGI (HT29 colon): > 100 µM
TGI (NCI-H226 lung): > 100 µM
TGI (SK-MEL-2 melanoma): > 100 µM
TGI (UO-31 renal): > 100 µM

CC#COP(=O)(OCC)OCC
TGI (SF-539 CNS): > 100 µM
TGI (COLO 205 colon): > 100 µM
TGI (RPMI-8226 leukemia): > 100 µM
TGI (HT29 colon): > 100 µM
TGI (NCI-H226 lung): > 100 µM
TGI (SK-MEL-2 melanoma): > 100 µM
TGI (UO-31 renal): > 100 µM

CCOC(=O)C(c1c[nH]c2ccccc12)(c1c[nH]c2ccccc12)c1c[nH]c2ccccc12
TGI (SF-539 CNS): > 100 µM
TGI (COLO 205 colon): 39.2 µM
TGI (BT-549 breast): > 100 µM
TGI (NCI/ADR-RES ovarian): > 100 µM
TGI (RPMI-8226 leukemia): 45.7 µM
TGI (HT29 colon): > 100 µM
TGI (MDA-MB-231 breast): > 100 µM
TGI (SK-MEL-2 melanoma): 59.7 µM
TGI (UO-31 renal): > 100 µM

COc1ccc(/C=C2\OC(=O)C(Cl)=C2c2ccc(OC)cc2)cc1
TGI (SF-539 CNS): > 100 µM
TGI (COLO 205 colon): > 100 µM
TGI (BT-549 breast): > 100 µM
TGI (RPMI-8226 leukemia): > 100 µM
TGI (HT29 colon): > 100 µM
TGI (MDA-MB-231 breast): > 100 µM
TGI (SK-MEL-2 melanoma): > 100 µM
TGI (UO-31 renal): > 100 µM

NS(=O)(=O)c1cc2c(cc1Cl)NC(C(=O)c1cc(=O)c3ccc(O)cc3o1)=NS2(=O)=O
TGI (SF-539 CNS): > 100 µM
TGI (COLO 205 colon): > 100 µM
TGI (RPMI-8226 leukemia): > 100 µM
TGI (HT29 colon): > 100 µM
TGI (NCI-H226 lung): > 100 µM
TGI (SK-MEL-2 melanoma): > 100 µM
TGI (UO-31 renal): > 100 µM

N#CC(C#N)=CN1CCN(C(=O)c2ccco2)C1=S
GI50 (SF-539 CNS): 2.48 µM
TGI (SF-539 CNS): 7.55 µM
GI50 (COLO 205 colon): 16.5 µM
TGI (COLO 205 colon): 70.5 µM
GI50 (BT-549 breast): 6.85 µM
TGI (BT-549 breast): 54.6 µM
GI50 (RPMI-8226 leukemia): 4.53 µM
TGI (RPMI-8226 leukemia): > 100 µM
GI50 (HT29 colon): 27.7 µM
TGI (HT29 colon): > 100 µM
GI50 (MDA-MB-231 breast): 2.92 µM
TGI (MDA-MB-231 breast): 17.3 µM
GI50 (SK-MEL-2 melanoma): 4.28 µM
TGI (SK-MEL-2 melanoma): 12.8 µM
GI50 (UO-31 renal): 10.5 µM
TGI (UO-31 renal): 30.1 µM

COc1cc(S(=O)(=O)Nc2ccc(-c3csc(N4C(=O)CSC4c4cccs4)n3)cc2)ccc1Cl (stereo not given)
TGI (SF-539 CNS): 61.6 µM
TGI (COLO 205 colon): > 100 µM
TGI (BT-549 breast): 70.5 µM
TGI (NCI/ADR-RES ovarian): > 100 µM
TGI (RPMI-8226 leukemia): 66.8 µM
TGI (HT29 colon): > 100 µM
TGI (NCI-H226 lung): 81.8 µM
TGI (SK-MEL-2 melanoma): 42.6 µM
TGI (UO-31 renal): > 100 µM

C=CCONC(=O)c1ccc(Cl)cc1
TGI (SF-539 CNS): > 100 µM
TGI (COLO 205 colon): > 100 µM
TGI (RPMI-8226 leukemia): > 100 µM
TGI (HT29 colon): > 100 µM
TGI (SK-MEL-2 melanoma): > 100 µM
TGI (UO-31 renal): > 100 µM

COc1cc(/C=C\c2ccccn2)cc(OC)c1OC
TGI (SF-539 CNS): > 100 µM
TGI (COLO 205 colon): > 100 µM
TGI (RPMI-8226 leukemia): > 100 µM
TGI (HT29 colon): > 100 µM
TGI (NCI-H226 lung): > 100 µM
TGI (UO-31 renal): > 100 µM

COc1cc2c(cc1OC)-c1[nH]c3ccc(C#N)cc3c1CC(=O)N2
TGI (SF-539 CNS): > 100 µM
TGI (COLO 205 colon): 10.6 µM
TGI (BT-549 breast): > 100 µM
TGI (NCI/ADR-RES ovarian): > 100 µM
TGI (HT29 colon): > 100 µM
TGI (NCI-H226 lung): > 100 µM
TGI (MDA-MB-231 breast): > 100 µM
TGI (UO-31 renal): > 22.6 µM

NC(=O)OCC(COc1ccc(Cl)cc1)OC(=O)c1ccccc1Cl (stereo not given)
TGI (SF-539 CNS): 36.1 µM
TGI (COLO 205 colon): 32.7 µM
TGI (RPMI-8226 leukemia): 51.6 µM
TGI (HT29 colon): 33.2 µM
TGI (NCI-H226 lung): 60.2 µM
TGI (SK-MEL-2 melanoma): 34.1 µM
TGI (UO-31 renal): 51.5 µM

c1ccc(Nc2nnc(CSc3nc(-c4ccccc4)c(-c4ccccc4)[nH]3)s2)cc1
TGI (SF-539 CNS): 43.6 µM
TGI (COLO 205 colon): 25.6 µM
TGI (RPMI-8226 leukemia): 50.4 µM
TGI (HT29 colon): 30.6 µM
TGI (NCI-H226 lung): 33 µM
TGI (SK-MEL-2 melanoma): 38.4 µM
TGI (UO-31 renal): 34.7 µM

CCOC(=O)CSc1ccnc(=O)[nH]1
TGI (SF-539 CNS): > 100 µM
TGI (COLO 205 colon): > 100 µM
TGI (RPMI-8226 leukemia): > 100 µM
TGI (HT29 colon): > 100 µM
TGI (SK-MEL-2 melanoma): > 100 µM
TGI (UO-31 renal): > 100 µM

O=C(NC(C(F)(F)F)(C(F)(F)F)P(=O)(c1ccccc1)c1ccccc1)C(C(F)(F)F)C(F)(F)F
TGI (SF-539 CNS): 52.1 µM
TGI (COLO 205 colon): 37.4 µM
TGI (NCI/ADR-RES ovarian): 47.9 µM
TGI (RPMI-8226 leukemia): 91.8 µM
TGI (HT29 colon): 56 µM
TGI (NCI-H226 lung): > 100 µM
TGI (MDA-MB-231 breast): 59.2 µM
TGI (SK-MEL-2 melanoma): > 100 µM
